Measurements published in PubChem BioAssay AID2060617 (Molecular Pharmacology Branch, DTP, NCI, 2025).

Tested on: 485368-065-R4-J2-PDC spheroids with HUVEC/MSC, viability
Assay: Anticancer human tumor 485368-065-R4-J2-PDC patient-derived pancreatic carcinoma cell line growth inhibition [CLK]
Details: for IC50: curve of first compound; for viability, T/C: stronger effect = lower value
How it was run: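 Multi-cell-type spheroids combined patient-derived tumor cells with HUVEC endothelial cells and human mesenchymal stem cells. Paired agents were dosed in half-log steps down from about clinical Cmax, or from 10 microM where Cmax was unknown.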

[1] = second compound 0.0316 µM, first compound 0.0316 µM
[2] = second compound 0.0316 µM, first compound 0.1 µM
[3] = second compound 0.0316 µM, first compound 0.316 µM
[4] = second compound 0.0316 µM, first compound 1 µM
[5] = second compound 0.0316 µM, first compound 3.16 µM
[6] = second compound 0.0316 µM, first compound 10 µM
[7] = second compound 0.1 µM, first compound 0.0316 µM
[8] = second compound 0.1 µM, first compound 0.1 µM
[9] = second compound 0.1 µM, first compound 0.316 µM
[10] = second compound 0.1 µM, first compound 1 µM
[11] = second compound 0.1 µM, first compound 3.16 µM
[12] = second compound 0.1 µM, first compound 10 µM
[13] = second compound 0.316 µM, first compound 0.0316 µM
[14] = second compound 0.316 µM, first compound 0.1 µM
[15] = second compound 0.316 µM, first compound 0.316 µM
[16] = second compound 0.316 µM, first compound 1 µM
[17] = second compound 0.316 µM, first compound 3.16 µM
[18] = second compound 0.316 µM, first compound 10 µM
[19] = second compound 1 µM, first compound 0.0316 µM
[20] = second compound 1 µM, first compound 0.1 µM
[21] = second compound 1 µM, first compound 0.316 µM
[22] = second compound 1 µM, first compound 1 µM
[23] = second compound 1 µM, first compound 3.16 µM
[24] = second compound 1 µM, first compound 10 µM
[25] = second compound 3.16 µM, first compound 0.0316 µM
[26] = second compound 3.16 µM, first compound 0.1 µM
[27] = second compound 3.16 µM, first compound 0.316 µM
[28] = second compound 3.16 µM, first compound 1 µM
[29] = second compound 3.16 µM, first compound 3.16 µM
[30] = second compound 3.16 µM, first compound 10 µM
[31] = second compound 10 µM, first compound 0.0316 µM
[32] = second compound 10 µM, first compound 0.1 µM
[33] = second compound 10 µM, first compound 0.316 µM
[34] = second compound 10 µM, first compound 1 µM
[35] = second compound 10 µM, first compound 3.16 µM
[36] = second compound 10 µM, first compound 10 µM
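Further: spheroids exposed to compounds for seven days.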
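Wherever viability, T/C is given: 100% = DMSO vehicle control wells.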

CC(=O)O[C@H]1C(=O)[C@@]2(C)[C@H]([C@H](OC(=O)c3ccccc3)[C@]3(O)C[C@H](OC(=O)[C@H](O)[C@@H](NC(=O)c4ccccc4)c4ccccc4)C(C)=C1C3(C)C)[C@]1(OC(C)=O)CO[C@@H]1C[C@@H]2O + CNC(=O)c1ccc(Nc2nc(OC3CCCC3)c3c(-c4ccc5nc(C)oc5c4)c[nH]c3n2)c(OC)c1
IC50 (second compound 0.0316 µM): > 10 µM
IC50 (second compound 0.1 µM): > 10 µM
IC50 (second compound 0.316 µM): > 10 µM
IC50 (second compound 1 µM): > 10 µM
IC50 (second compound 3.16 µM): > 10 µM
IC50 (second compound 10 µM): > 10 µM
viability, T/C [1]: 63.4%
viability, T/C [2]: 49.2%
viability, T/C [3]: 55.9%
viability, T/C [4]: 62.6%
viability, T/C [5]: 56.5%
viability, T/C [6]: 55.8%
viability, T/C [7]: 59.1%
viability, T/C [8]: 66.3%
viability, T/C [9]: 60.4%
viability, T/C [10]: 56.7%
viability, T/C [11]: 55.2%
viability, T/C [12]: 76.5%
viability, T/C [13]: 76.3%
viability, T/C [14]: 79.7%
viability, T/C [15]: 85.2%
viability, T/C [16]: 85.6%
viability, T/C [17]: 86.6%
viability, T/C [18]: 102%
viability, T/C [19]: 73.8%
viability, T/C [20]: 82.2%
viability, T/C [21]: 81.6%
viability, T/C [22]: 83.5%
viability, T/C [23]: 90.5%
viability, T/C [24]: 91.9%
viability, T/C [25]: 74.4%
viability, T/C [26]: 80.1%
viability, T/C [27]: 86.4%
viability, T/C [28]: 78.6%
viability, T/C [29]: 88%
viability, T/C [30]: 88.9%
viability, T/C [31]: 67.5%
viability, T/C [32]: 78.8%
viability, T/C [33]: 73.9%
viability, T/C [34]: 77.5%
viability, T/C [35]: 82.4%
viability, T/C [36]: 95.4%

C=CC(=O)N1CCN(c2nc(=O)n(-c3c(C)ccnc3C(C)C)c3nc(-c4c(O)cccc4F)c(F)cc23)C(C)C1 (centres undefined) + CN1CCN(c2cc(C(=O)Nc3cc4cc(-c5cnn(C)c5)ccc4cn3)ccn2)CC1
IC50 (second compound 0.0316 µM): > 10 µM
IC50 (second compound 0.1 µM): > 10 µM
IC50 (second compound 0.316 µM): > 10 µM
IC50 (second compound 1 µM): < 0.0316 µM
IC50 (second compound 3.16 µM): < 0.0316 µM
IC50 (second compound 10 µM): < 0.0316 µM
viability, T/C [1]: 107%
viability, T/C [2]: 106%
viability, T/C [3]: 99.6%
viability, T/C [4]: 104%
viability, T/C [5]: 99.5%
viability, T/C [6]: 106%
viability, T/C [7]: 96.7%
viability, T/C [8]: 121%
viability, T/C [9]: 107%
viability, T/C [10]: 108%
viability, T/C [11]: 105%
viability, T/C [12]: 102%
viability, T/C [13]: 83.3%
viability, T/C [14]: 86.6%
viability, T/C [15]: 94.9%
viability, T/C [16]: 94.1%
viability, T/C [17]: 88.9%
viability, T/C [18]: 78.7%
viability, T/C [19]: 1.22%
viability, T/C [20]: 1.11%
viability, T/C [21]: 1.36%
viability, T/C [22]: 1.9%
viability, T/C [23]: 3.44%
viability, T/C [24]: 3.58%
viability, T/C [25]: 3.01%
viability, T/C [26]: 2.65%
viability, T/C [27]: 2.4%
viability, T/C [28]: 2.51%
viability, T/C [29]: 4.69%
viability, T/C [30]: 10.6%
viability, T/C [31]: 1.58%
viability, T/C [32]: 2.84%
viability, T/C [33]: 2.36%
viability, T/C [34]: 3.44%
viability, T/C [35]: 4%
viability, T/C [36]: 8.87%
